Data set [1] deals with EV-D68 US/MO/14-18947 passaged viruses. Put plainly: Serial passage experiment 1: drug sensitivity of passaged viruses. The format is cell-based, Enterovirus D68. The note with it: Enterovirus D, CPE assay.
Data set [2] is described as follows: Drug concentration in the spinal cord by LC-MS/MS. The note with it: Swiss Webster, mouse, ip, 50 mg/kg, one hour after the intraperitoneal injection. The format is in vivo, Swiss Webster mouse pups.
In another data set the test system is EV-A71 Tainan/4643/1998. Put plainly: Plaque assay, EV-A71 Tainan/4643/1998. The following applies: Enterovirus A, EVA71, plaque assay. The format is cell-based.
Data set [3] has as its system EV-D68. Put plainly: IHC staining of spinal cord sections of EV-D68-infected mice. The following applies: 8 DPI, 24-h delayed treatment model. The format is in vivo, Swiss Webster pups.
For the next data set, the system named is EV-D68 US/IL/14-18952. In words: EV-D68 infection neonatal mouse model. The note with it: for Weight at DPI14: 50 mg/kg i.p. daily. The format is in vivo, Swiss Webster mice.
The nature of data set [4]: Tolerability in uninfected Jun6504-treated mice. The following applies: 50 mg/kg dose, uninfected treated animals. Format: in vivo.
The subject of data set [5] is EV-D68 US/MO/14-18947. Put plainly: Plaque assay, EV-D68 US/MO/14-18947 in RD cells. Format: cell-based. The following applies: Enterovirus D, EVD68, RD.
Data set [6] concerns EV-D68 US/MO/14-18947. Put plainly: Time-of-addition experiment, single cycle of EV-D68 replication in RD cells. Format: cell-based, Enterovirus D68. The note with it: 3 µM.
The subject of data set [7] is EV-D68. The note with it: AG129 mice; cited from earlier work.
For another data set, the system named is EV-D68-associated AFM. The note with it: patients with EV-D68-associated AFM; cited from earlier work.
Data set [8] concerns EV-D68. The following applies: EV-D68 infection neonatal mouse model; cited from earlier work.
Data set [9] relates to EV-D68. The note with it: EV-D68 animal infection models; cited from earlier work.

Turning to `CC(C)n1ncc2c(C(=O)NCC3(C)CNC3)cc(C3CC3)nc21` [Jun6504], the EC50 in data set [1] (EVD68, P3 virus, selection pressure 400 nM) worked out at 800 nM; in [1] (EVD68, P6 virus, selection pressure 3.2 μM) it was 3380 nM; in the data set with EV-A71 Tainan/4643/1998, 220 nM; in the data set on EV-D68 US/MO/14-18947 [5], 130 nM. The concentration at 1 h in data set [2] was approximately 575 ng/g. Moreover, the “EV-D68-infected (NeuN+) neurons in the cervical enlargement” value in the data set with EV-D68 [3] is “no infected (NeuN+) neurons were observed”. In addition, the “ChAT-positive motor neurons in lumbar spinal cord” value in the data set on EV-D68 [3] (treated animals with paralysis score 0) is “many ChAT-positive motor neurons present”. Further, the “Weight at DPI14” value in the data set on EV-D68 US/IL/14-18952 (24-h delayed treatment model, control 8.65 ± 0.23 g) is 9.59 ± 0.27 g; in the data set with EV-D68 US/IL/14-18952 (immediate treatment model, control 7.92 ± 0.46 g), 9.29 ± 0.14 g. Also, the “Viral titer in spinal cord” value in the data set with EV-D68 US/IL/14-18952 (DPI5 after 4 daily doses, 24-h delayed model, control 19,834 ± 11,519) is recorded as 4520 ± 1796 TCID50. Besides, in data set [4], the tolerability entry is “no signs of pain, weight loss, or death were observed”. Besides, the “effect on antiviral potency” value in the data set with EV-D68 US/MO/14-18947 [6] (added at 5 hpi) is recorded as “significant reduction in the antiviral potency”. Further, in the data set with EV-D68 US/MO/14-18947 [6] (added at 7 hpi), the effect on efficacy entry is “almost complete loss of efficacy”. In addition, the “effect on EV-D68 amplification” value with EV-D68 US/MO/14-18947 [6] (added before or at 3 h post-infection) was “completely inhibited EV-D68 amplification”.
As for `CC(C)S(=O)(=O)n1c(N)nc2ccc(/C(=N/O)c3ccccc3)cc21` [enviroxime], in the data set with EV-D68 [7], the therapeutic efficacy result is reported as “no therapeutic efficacy”.
As to `CNCCC(Oc1ccc(C(F)(F)F)cc1)c1ccccc1` (stereo not shown) [fluoxetine], the neurological outcomes in the data set on EV-D68-associated AFM is given as “failed to improve neurological outcomes”. Further, the “effect on motor impairment and viral titers” value in the data set on EV-D68 [8] is “did not reduce motor impairment or viral titers in the muscle and spinal cord”.
As for `N=C(N)N` [guanidine], the “in vivo antiviral activity” value in the data set with EV-D68 [9] is reported as “have shown in vivo antiviral activity”.
For `CCOC(=O)c1ccc(OCCC2CCN(c3ccc(C)nn3)CC2)cc1` [pirodavir], in the data set with EV-D68 [7], the therapeutic efficacy entry is “no therapeutic efficacy”.
As to `Cc1cc(CCCOc2c(C)cc(-c3noc(C(F)(F)F)n3)cc2C)on1` [pleconaril], in the data set with EV-D68 [7], the therapeutic efficacy entry is “no therapeutic efficacy”.
As for `NC(=O)c1ncn([C@@H]2O[C@H](CO)[C@@H](O)[C@H]2O)n1` [ribavirin], the therapeutic efficacy entry in the data set with EV-D68 [7] is given as “no therapeutic efficacy”.
For `CCOC(=O)/C=C/[C@H](C[C@@H]1CCNC1=O)NC(=O)[C@@H](CC(=O)[C@@H](NC(=O)c1cc(C)on1)C(C)C)Cc1ccc(F)cc1` [rupintrivir], the therapeutic efficacy entry in the data set with EV-D68 [7] is reported as “no therapeutic efficacy”.
